Data reported in US20110152314A1, “USE OF TENATOPRAZOLE FOR THE TREATMENT OF GASTROESOPHAGEAL REFLUX DISEASE” (SIDEM PHARMA, priority 2002, published 2011).
Like-named read-outs stand apart in the source and are kept apart here.

Legend:
[1] = Phase I study, pharmacokinetic parameters after oral single dose and daily dose for 7 days; type: in vivo, human; settings: for AUC(0-t) / Cmax at 7 days / Tmax at 7 days / half-life at 7 days / Cmax / Tmax / half-life: human, oral; for AUC(0-t): po, read-out: AUC 0-t area under the curve, between time 0 and the last measurable concentration; for Cmax at 7 days / Cmax: read-out: Cmax maximum concentration; for Tmax at 7 days / Tmax: read-out: Tmax time required to attain maximum concentration
Method: The doses tested were 10, 20, 40 and 80 mg of tenatoprazole.
In this table, the abbreviations employed have the following meaning:
Cmax maximum concentration
Tmax time required to attain maximum concentration
T1/2 elimination half-life
AUC0-t area under the curve, between time 0 and the last measurable concentration.
The AUC0-inf value was calculated by extrapolation.

[2] = tested on: patients suffering from erosive and/or ulcerative type reflux esophagitis; experiment: Open-labeled studies in reflux esophagitis: endoscopic improvement rating; type: in vivo, human
Method: Two open-labeled studies have been conducted in order to evaluate the efficacy and safety of tenatoprazole for gastroesophageal reflux disease. 22 patients in the first study and 24 patients in the second study, of more than 20 years of age, suffering from erosive and/or ulcerative type reflux esophagitis (diagnosed by endoscopy), received tablets containing enteric-coated granules with 10 mg of tenatoprazole.
The tablets were administered orally once a day after breakfast, for a treatment period of 8 weeks, which was continued up to 12 weeks in some cases. Healing was controlled by endoscopic examination 4 weeks and 8 weeks after the first administration, or at the withdrawal from the study, the disease stages were evaluated according to the Savary and Miller classification and the treatment was stopped when healing was confirmed. The condition was evaluated as healed when disappearance of erosion was confirmed.

[3] = in vivo, repeated dose (7 days) 10 mg daily
[4] = in vivo, repeated dose (7 days) 20 mg daily
[5] = in vivo, repeated dose (7 days) 40 mg daily
[6] = in vivo, repeated dose (7 days) 80 mg daily
[7] = 1st study, 4 weeks, 10 mg tablet orally once a day
[8] = 1st study, 8 weeks, 10 mg tablet orally once a day
[9] = 1st study, final, 10 mg tablet orally once a day
[10] = 2nd study, 4 weeks, 10 mg tablet orally once a day
[11] = 2nd study, 8 weeks, 10 mg tablet orally once a day
[12] = 2nd study, 12 weeks, 10 mg tablet orally once a day
[13] = 2nd study, final, 10 mg tablet orally once a day

COc1ccc2[nH]c([S+]([O-])Cc3ncc(C)c(OC)c3C)nc2n1 (stereo not shown) [tenatoprazole, 5-methoxy-2-[[(4-methoxy-3,5-dimethyl-2-pyridyl)methyl]sulfinyl]imidazo[4,5-b]pyridine]
AUC(0-t) ([1]; in vivo, 10 mg, repeated dose (7 days) 10 mg daily): 13000 ng·h/mL | AUC(0-t) ([1]; in vivo, 10 mg, single dose 10 mg): 8000 ng·h/mL | AUC(0-t) ([1]; in vivo, 20 mg, repeated dose (7 days) 20 mg daily): 36000 ng·h/mL | AUC(0-t) ([1]; in vivo, 20 mg, single dose 20 mg): 24000 ng·h/mL | AUC(0-t) ([1]; in vivo, 40 mg, repeated dose (7 days) 40 mg daily): 75000 ng·h/mL | AUC(0-t) ([1]; in vivo, 40 mg, single dose 40 mg): 43000 ng·h/mL | AUC(0-t) ([1]; in vivo, 80 mg, repeated dose (7 days) 80 mg daily): 218000 ng·h/mL | AUC(0-t) ([1]; in vivo, 80 mg, single dose 80 mg): 97000 ng·h/mL | Cmax at 7 days [1, 3]: 1600 ng/mL | Tmax at 7 days [1, 3]: 3 h | half-life at 7 days ([1]; in vivo, repeated dose (7 days) 10 mg daily, read-out: T½ elimination half-life (converted)): 5 h | Cmax at 7 days [1, 4]: 3000 ng/mL | Tmax at 7 days [1, 4]: 2 h | half-life at 7 days ([1]; in vivo, repeated dose (7 days) 20 mg daily, read-out: T½ elimination half-life (converted)): 8 h | Cmax at 7 days [1, 5]: 5500 ng/mL | Tmax at 7 days [1, 5]: 3 h | half-life at 7 days ([1]; in vivo, repeated dose (7 days) 40 mg daily, read-out: T½ elimination half-life (converted)): 9 h | Cmax at 7 days [1, 6]: 11800 ng/mL | Tmax at 7 days [1, 6]: 2 h | half-life at 7 days ([1]; in vivo, repeated dose (7 days) 80 mg daily, read-out: T½ elimination half-life (converted)): 9.2 h | Cmax ([1]; in vivo, single dose 10 mg): 900 ng/mL | Tmax ([1]; in vivo, single dose 10 mg): 4 h | half-life ([1]; in vivo, single dose 10 mg, read-out: T½ elimination half-life (converted)): 5 h | Cmax ([1]; in vivo, single dose 20 mg): 2400 ng/mL | Tmax ([1]; in vivo, single dose 20 mg): 4 h | Cmax ([1]; in vivo, single dose 40 mg): 5300 ng/mL | Tmax ([1]; in vivo, single dose 40 mg): 3 h | half-life ([1]; in vivo, single dose 40 mg, read-out: T½ elimination half-life (converted)): 6 h | Cmax ([1]; in vivo, single dose 80 mg): 8300 ng/mL | Tmax ([1]; in vivo, single dose 80 mg): 3 h | half-life ([1]; in vivo, single dose 80 mg, read-out: T½ elimination half-life (converted)): 7 h | half-life ([1]; plasma, after a single dose, depending on the dose (10-80 mg), read-out: mean elimination half-lives): 5 to 6 h | half-life at 7 days ([1]; plasma, after administration for seven days, depending on the dose (10-80 mg), read-out: mean elimination half-lives): 5 to 9.5 h | half-life compared with other proton pump inhibitors (omeprazole, esomeprazole) ([1]; in vivo): some seven times longer | dose dependence of Cmax, AUC0-t and AUC0-inf ([1]; single or repeated administration, 10-80 mg): increased in a linear fashion | Endoscopic improvement rating, patients rated A healed [2, 7]: 20 | Endoscopic improvement rating, patients rated B markedly decreased [2, 7]: 1 | Endoscopic improvement rating, patients rated C moderately decreased [2, 7]: 0 | Endoscopic improvement rating, patients rated D slightly decreased [2, 7]: 0 | Endoscopic improvement rating, patients rated E not changed [2, 7]: 1 | Endoscopic improvement rating, patients rated F aggravated [2, 7]: 0 | Endoscopic improvement rating, patients rated A healed [2, 8]: 21 | Endoscopic improvement rating, patients rated B markedly decreased [2, 8]: 0 | Endoscopic improvement rating, patients rated C moderately decreased [2, 8]: 0 | Endoscopic improvement rating, patients rated D slightly decreased [2, 8]: 0 | Endoscopic improvement rating, patients rated E not changed [2, 8]: 1 | Endoscopic improvement rating, patients rated F aggravated [2, 8]: 0 | Endoscopic improvement rating, patients rated A healed [2, 9]: 21 | Endoscopic improvement rating, patients rated B markedly decreased [2, 9]: 0 | Endoscopic improvement rating, patients rated C moderately decreased [2, 9]: 0 | Endoscopic improvement rating, patients rated D slightly decreased [2, 9]: 0 | Endoscopic improvement rating, patients rated E not changed [2, 9]: 1 | Endoscopic improvement rating, patients rated F aggravated [2, 9]: 0 | Endoscopic improvement rating, patients rated A healed [2, 10]: 23 | Endoscopic improvement rating, patients rated B markedly decreased [2, 10]: 2 | Endoscopic improvement rating, patients rated C moderately decreased [2, 10]: 0 | Endoscopic improvement rating, patients rated D slightly decreased [2, 10]: 0 | Endoscopic improvement rating, patients rated E not changed [2, 10]: 0 | Endoscopic improvement rating, patients rated F aggravated [2, 10]: 0 | Endoscopic improvement rating, patients rated A healed [2, 11]: 24 | Endoscopic improvement rating, patients rated B markedly decreased [2, 11]: 0 | Endoscopic improvement rating, patients rated C moderately decreased [2, 11]: 0 | Endoscopic improvement rating, patients rated D slightly decreased [2, 11]: 0 | Endoscopic improvement rating, patients rated E not changed [2, 11]: 0 | Endoscopic improvement rating, patients rated F aggravated [2, 11]: 0 | Endoscopic improvement rating, patients rated A healed [2, 12]: 24 | Endoscopic improvement rating, patients rated B markedly decreased [2, 12]: 0 | Endoscopic improvement rating, patients rated C moderately decreased [2, 12]: 0 | Endoscopic improvement rating, patients rated D slightly decreased [2, 12]: 0 | Endoscopic improvement rating, patients rated E not changed [2, 12]: 0 | Endoscopic improvement rating, patients rated F aggravated [2, 12]: 0 | Endoscopic improvement rating, patients rated A healed [2, 13]: 24 | Endoscopic improvement rating, patients rated B markedly decreased [2, 13]: 0 | Endoscopic improvement rating, patients rated C moderately decreased [2, 13]: 0 | Endoscopic improvement rating, patients rated D slightly decreased [2, 13]: 0 | Endoscopic improvement rating, patients rated E not changed [2, 13]: 0 | Endoscopic improvement rating, patients rated F aggravated [2, 13]: 0 | patients not healed after 8 weeks treatment ([2]; both studies, 10 mg tablet orally once a day): Only one patient was not healed | efficacy in the treatment of gastroesophageal reflux disease, overall ([2]; both studies, healing obtained with a 4 week treatment): very effective
